Assay results from patent publication US20040052754A1, “Complexes of phosphate derivatives” (priority 2000, published 2004).

What was measured:
Human cadaver skin = assay: In vitro human skin penetration study; format: in vitro ADME; conditions: analyte tocopheryl acetate
Description: DSS was similar in TP and […] content, however, unlike TPC, DSS existed as the mixed sodium salts. A slurry of 6.25 w/w % of 80% DSS in 93.75 w/w % of the 95/5-water/ethanol mixture iwa prepared. Tocopheryl acetate was obtained from Roche/BASF. 5.0 w/w % of TA was dispersed in 95.0 w/w % of 95/5 water/ethanol mixture. The test formulations were evaluated in in vitro human skin penetration studies. […] The tests were conducted by […] International (San Diego, Calif.). Human cadaver skin was obtained and prepared. […] Receptor solutions were collected over 48 hours at pre-selected time intervals. After 48 hours the skin surface was washed with isopropyl alcohol, and the skin was collected and split into epidermis and dermis. The skin sections were extracted with isopropyl alcohol.

[1] = Vapour pressure osmometry (dissociation in water); format: physicochemical; conditions: arbitrary scale
Text: A vapour pressure osmometer was used to investigate the dissociation of the di-sodium alpha tocopheryl phosphate N-lauryl imino dipropionate complex by comparing the lowering of the equilibrium temperature to give an identical partial pressure of water vapour around a drop of pure water versus various solutions as an indication of the relative moles of solute.
N-lauryl imino dipropionate alone gives three ions and at 0.05M the effect was 38 units. If the complex was readily dissociated, then the additional tocopheryl phosphate would be expected to increase the effect in the ratio 3:5 by the addition of the charged amino group as a cation and tocopheryl hydrogen phosphate anion.

## CC(=O)Oc1c(C)c(C)c2c(c1C)CCC(C)(CCC[C@H](C)CCC[C@H](C)CCCC(C)C)O2 (stereo partly drawn) [TA, Tocopheryl acetate]
Human cadaver skin; 48 hours
  Dermis/Epidermis Ratio, Tocopheryl Acetate: 0.20
Human cadaver skin; dermis after 48 hours, 5 μL/cm^2 topical dose
  Percent distribution recovered: Tocopheryl Acetate, Dermis: 1.39 wt/wt %
Human cadaver skin; epidermis after 48 hours, 5 μL/cm^2 topical dose
  Percent distribution recovered: Tocopheryl Acetate, Epidermis: 7.13 wt/wt %
Human cadaver skin; surface wash after 48 hours, 5 μL/cm^2 topical dose
  Percent distribution recovered: Tocopheryl Acetate, Surface Wash: 91.48 wt/wt %

## [Cl-].[Na+] [sodium chloride]
[1]; 0.1M in water
  Osmometer effect: 29 unit

## CCCCCCCCCCCCN(CCC(=O)O)CCC(=O)O [N-lauryl imino dipropionate]
[1]; 0.05M in water
  Osmometer effect: 38 units
